Experimental data: the supplement of paper PMC12533247

Experiments:
[1] = test system: HSV-1 K26-GFP infected primary human skin cells; assay: % change of HSV-1 GFP signal vs untreated infected cells; higher = less antiviral inhibition
Description: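 2D primary donor-derived keratinocytes (read at 20 hpi) and donor-matched dermal fibroblasts (read at 48 hpi) infected with GFP-HSV-1 K26 at MOI 1 and treated 1 h later with compound dilutions. IncuCyte GFP integrated intensity is normalised by subtracting mock-infected wells and dividing by untreated infected wells, shown as % change (-100 = full inhibition).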

[2] = test system: HSV-1 K26-GFP infected 3D skin equivalent; assay: % activity on HSV-1 GFP signal (0 = infected DMSO control, -100 = uninfected control); higher = higher signal (negative = inhibition / toxicity); details: time (h post infection): 48
Description: (§1)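 Triplicate dose-response (0.04 to 10 uM) of 11 top compounds in 3D bioprinted skin equivalents (submerged and ALI models) infected with GFP-HSV-1 K26 at MOI 0.1 and fixed at 48 hpi. GFP (virus) and tdTomato (fibroblast viability) signals are normalised to per-plate controls.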

primary keratinocytes = assay: % change in live cells vs DMSO control; higher = less cytotoxic; details: time (h post treatment): 20
Description: (§2)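 Cytotoxicity in uninfected 2D primary donor keratinocytes (20 h post treatment) and fibroblasts (48 h post treatment), measured with NucSpot live/dead dyes on IncuCyte. Live cells are normalised to the 0.2% DMSO control and shown as % change. Three biological replicates for each of donors 3, 4 and 5.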

[3] = test system: primary dermal fibroblasts; assay: as above; details: time (h post treatment): 48
Description: as §2

[4] = test system: HSV-1 K26-GFP infected 3D skin equivalent; assay: % change of tdTomato fibroblast signal relative to infected DMSO control; higher = higher signal (negative = inhibition / toxicity); details: time (h post infection): 48
Description: as §1

Nc1ccn([C@@H]2O[C@H](CO)[C@@H](O)C2(F)F)c(=O)n1 [Gemcitabine]
% change of HSV-1 GFP signal [%], [1]
Details | 0.001 µM | 0.003 µM | 0.0091 µM | 0.0274 µM | 0.0823 µM | 0.2469 µM | 0.7407 µM | 2.2222 µM | 6.6667 µM | 20 µM
cell type: primary dermal fibroblasts, donor: 5, time (h post infection): 48 | -5.06 | -5.8 | -2.35 | -8.4 | -70.4 | -97.2 | -99.78 | -99.91 | -99.93 | -99.87
cell type: primary keratinocytes, donor: 3, time (h post infection): 20 | 29.8 | 37.4 | 36.1 | 17.1 | -25.6 | -75.6 | -97.4 | -98.37 | -99 | -99.06
cell type: primary keratinocytes, donor: 4, time (h post infection): 20 | 9.34 | 0.292 | 4.89 | -17.4 | -50.7 | -86.4 | -97.6 | -99.732 | -99.606 | -99.72
cell type: primary keratinocytes, donor: 5, time (h post infection): 20 | 6.72 | 7.7 | 7.12 | 9.71 | -23 | -73.3 | -94.7 | -99 | -99.39 | -99.6

Details | % activity on HSV-1 GFP signal, [2] [%] | % change in live cells, [3] [%] | % change in live cells, primary keratinocytes [%] | % change of tdTomato fibroblast signal, [4] [%]
0.041152 µM, model: ALI | -11.7 | – | – | -3.97
0.041152 µM, model: submerged | -9.74 | – | – | -1.22
0.082305 µM, donor: 3 | – | -21.3 | -37.7 | –
0.082305 µM, donor: 4 | – | -9.33 | -63 | –
0.082305 µM, donor: 5 | – | -5 | -51.3 | –
0.123457 µM, model: ALI | -37.9 | – | – | -3.65
0.123457 µM, model: submerged | -26.5 | – | – | -6.59
0.246914 µM, donor: 3 | – | -23.7 | -45.3 | –
0.246914 µM, donor: 4 | – | -9.33 | -67.7 | –
0.246914 µM, donor: 5 | – | -11.3 | -52.7 | –
0.37037 µM, model: ALI | -102 | – | – | -3.96
0.37037 µM, model: submerged | -92.4 | – | – | -13.9
0.740741 µM, donor: 3 | – | -27.3 | -49.7 | –
0.740741 µM, donor: 4 | – | -15.7 | -63.7 | –
0.740741 µM, donor: 5 | – | -21.3 | -51.3 | –
1.111111 µM, model: ALI | -106 | – | – | -5.76
1.111111 µM, model: submerged | -97 | – | – | -17.6
2.22222 µM, donor: 3 | – | -30.3 | -52.3 | –
2.22222 µM, donor: 4 | – | -11.7 | -63.7 | –
2.22222 µM, donor: 5 | – | -26.3 | -55.7 | –
3.33333 µM, model: ALI | -99.4 | – | – | -10.9
3.33333 µM, model: submerged | -99 | – | – | -22.7
6.66667 µM, donor: 3 | – | -33.3 | -57.3 | –
6.66667 µM, donor: 4 | – | -9.67 | -74.3 | –
6.66667 µM, donor: 5 | – | -34.3 | -61 | –
10 µM, model: ALI | -102 | – | – | -5.25
10 µM, model: submerged | -99.8 | – | – | -28.4
20 µM, donor: 3 | – | -38 | -75.7 | –
20 µM, donor: 4 | – | -18 | -76.3 | –
20 µM, donor: 5 | – | -43.3 | -70 | –
60 µM, donor: 3 | – | -43.7 | -77.7 | –
60 µM, donor: 4 | – | -19.7 | -87.3 | –
60 µM, donor: 5 | – | -52.7 | -78.7 | –
